Assay results published in patent publication US9592214B2, “Compounds for the treatment of autism in a baby child” (INSERM (INSTITUT NATIONAL DE LA SANTE ET DE LA RECHERCHE …, priority 2010, dated 2017).
Entries after “also recorded” stand apart in the source; their conditions may differ.

Tests used:
[1] = test system: hippocampal CA3 pyramidal neurons; experiment: Whole-cell voltage clamp recordings of sEPSCs in offspring after maternal pretreatment; assay type: in vivo, rat; details: P15 VPA rats, maternal bumetanide pretreatment; −70 mV; result in words
Description: Standard whole-cell recordings were performed in coronal neocortical rat or mouse brain slices at room temperature (20-22° C.) from the soma of hippocampal CA3 neurons using an EPC-10 (HEKA Elektronik, Germany) amplifier and filtered at 3-10 kHz. The internal solution contained (in mM): 130 K-gluconate, 10 Na-gluconate, 4 NaCl, 4 MgATP, 4 phosphocreatine, 10 HEPES, and 0.3 GTP (pH 7.3 with KOH). Biocytin (final concentration 0.3-0.5%) was added to the pipette solution to label the neurons from which recordings were obtained. Neurons were visualized by using infrared DIC video microscopy. Spontaneous postsynaptic currents were recorded for […] at the reversal potentials for […] currents (−70 mV). It should be specifically noted that all recordings were made in normal ACSF (1.3 mM MgCl2). Stored data were analyzed using the Mini Analysis 6.0.3 (Synaptosoft Inc., Chapell Hill, N.C.) and Origin (MicroCal, Northampton, Mass.) software. To minimize potential sampling bias, the pups from at least three deliveries for each condition were studied. Data are expressed as mean±S.E.M.
Bumetanide (10 μM), Oxytocin (1 μM) and Isoguvacine (2 μM) were directly added to the perfusion solutions. Bumetanide pretreatment (2-2.5 mg/kg) was given to the dams in drinking water. All drugs used were purchased from Sigma. […]

[2] = test system: Valproate rat model of autism; experiment: Isolation-induced ultrasonic vocalizations; assay type: in vivo
Description: Time-mated female Wistar rats at gestational day E7-8 were housed under standard laboratory conditions. The in utero valproic acid (VPA) rodent model of autism spectrum disorders has been previously described in detail. Briefly, the sodium salt of VPA (Sigma-Aldrich) was dissolved in physiological saline solution to a concentration of 300 mg/ml. Pregnant rats received a single intra-peritoneal dose of 600 mg/kg on gestational day 12 (E12). The control dams received a single similar volume injection of saline at the same gestational time-point. Dams were housed individually and allowed to raise their own litters. The offspring were used for experiments on embryonic day 20 (E20) and postnatal (P) days 0, 2, 4, 7, 15 and 30 (after being weaned at P23). Experiments were carried out on offspring of either sex.
To induce ultrasonic vocalizations, […], and were placed into an isolation box (23×28×18 cm) located inside a sound attenuating isolation cubicle (54×57×41 cm; Coulbourn Instruments, Allentown, Pa., USA), and evaluated for ultrasonic vocalizations during a three minutes test. An ultrasound microphone (Avisoft UltraSoundGate Condenser microphone capsule CM16/CMPA, Avisoft Bioacoustics, Berlin, Germany), placed in the roof of the box, was sensitive to frequencies of 10 to 250 kHz. Vocalizations were recorded using the Avisoft Recorder software (version 4.2) with a sampling rate of 250 kHz in 16 bit format. For acoustical analysis, recordings were transferred to SASLab Pro (version 5.2; Avisoft Bioacoustics) and a fast Fourier transformation was conducted (512 FFT-length, 100% frame, Hamming window and 75% time window overlap). The accuracy of call detection was verified manually by an educated user. A Pearson correlation coefficient was computed to assess the relationship between Automatic and Manual analysis. There was 0.99 correlation between the two variables.
Bumetanide (10 μM), Oxytocin (1 μM) and Isoguvacine (2 μM) were directly added to the perfusion solutions. Bumetanide pretreatment (2-2.5 mg/kg) was given to the dams in drinking water. All drugs used were purchased from Sigma. SSR126768A (Sanofi-Synthelabo) pretreatment (1 mg/kg) was given to the dams in drinking water.

[3] = P4 VPA rats + maternal BUM pretreatment
[4] = P4 control rats + maternal BUM pretreatment

CCCCNc1cc(C(=O)O)cc(S(N)(=O)=O)c1Oc1ccccc1 [bumetanide]
sEPSCs frequency [1]: decreases; also recorded: significantly reduced | behavioral deficit (smaller number and shorter total duration of calls) ([2]; P4 VPA offspring, maternal bumetanide pretreatment, result in words): rescued this behavioral deficit | Number of calls, isolation-induced USVs mean ± S.E.M [2, 3]: 56 ± 25 (n = 20) | Total duration of calls, isolation-induced USVs mean ± S.E.M [2, 3]: 4 ± 2 (n = 20) | Number of calls, isolation-induced USVs mean ± S.E.M [2, 4]: 62.6 ± 27.4 (n = 18) | Total duration of calls, isolation-induced USVs mean ± S.E.M [2, 4]: 4.6 ± 2.3 (n = 18)
